Patent publication EP2455080A1, “S1P1 receptor agonists for use in the treatment of multiple sclerosis” (Almirall, S.A., priority 2010, dated 2012)

Columns and labels:
S1P1 receptor = S1P1 receptor (Homo sapiens, UniProt P21453); test: 35S-GTPyS binding assay; type: biochemical; details: membranes, 90 min at room temperature
Protocol: The effect of the compounds was measured using a 35S-GTPyS binding assay. Briefly, membranes were incubated in a buffer containing 20 mM HEPES pH 7.4, 100 mM NaCl, 10 mM MgCl2, 10µM GDP, 50µg/ml saponin and 0.2% fatty acid-free BSA at various concentrations (0.1nM-10µM) and 0.1nM 35S-GTPyS. 10µM […] was used as 100% maximum efficacy. The assay was incubated for 90 min at room temperature with gentle mixing, and terminated by filtrating the reaction mixture through GF/C filter plates using the Manifold Filtration System. The filters were immediately washed with sodium phosphate pH 7.4 buffers. After drying the filter plates scintillant liquid were added to each well and 35S-GTPyS binding was measured on a Trilux Scintillation Counter.

[1] = Acute hepatotoxicity assay: plasma liver markers (ALT, AST, TBIL) in mice; type: in vivo, Swiss mice; details: for ALT / AST / TBil: plasma, 24 h after single intraperitoneal administration; for hepatotoxicity: single intraperitoneal administration, liver markers 24 h later, compared to vehicle-treated group
Protocol: Acute hepatotoxicity assays were performed in Swiss mice. Animals received a single administration of either vehicle, or Fingolimod or a compound of the present invention (compounds from the list indicated previously) by intraperitoneal route. Twenty-four hours later, animals were sacrificed and the levels of liver markers ALT (alanine aminotransferase), AST (aspartate aminotransferase), and TBIL (total bilirubin) in plasma were determined. An increase in liver markers in this model indicates the potential of that compound to cause liver toxicity in humans at lower doses following longer exposures. Table 2: Plasma levels of liver markers of mice 24 h after treatment with either vehicle or test compounds No.142, No.171 or fingolimod.

in vivo = details: Wistar, rat, iv, 1 mg/kg
Protocol: Rats were administered with 1 mg/kg of test compounds by intraveneous route to Wistar rats. Blood samples were collected from retroorbital plexus at several time points after administration and plasma levels of compounds were quantified by MS-HPLC.

lymphocytes in blood = test: Recovery of lymphopenia in rats after a single oral administration; type: in vivo; details: Wistar rats, single oral dose that caused maximal lymphopenia
Protocol: Test compounds were administered by oral route to Wistar rats at a dose of each compound that caused maximal lymphopenia. At several times after administration, animals were anestesized and blood extracted from retroorbital plexus and collected into heparinized tubes. Total lymphocyte numbers were determined using a Sysmex K-800 haemocytometer. [formula]

S1P1 receptor, sequence (P21453 whole entry): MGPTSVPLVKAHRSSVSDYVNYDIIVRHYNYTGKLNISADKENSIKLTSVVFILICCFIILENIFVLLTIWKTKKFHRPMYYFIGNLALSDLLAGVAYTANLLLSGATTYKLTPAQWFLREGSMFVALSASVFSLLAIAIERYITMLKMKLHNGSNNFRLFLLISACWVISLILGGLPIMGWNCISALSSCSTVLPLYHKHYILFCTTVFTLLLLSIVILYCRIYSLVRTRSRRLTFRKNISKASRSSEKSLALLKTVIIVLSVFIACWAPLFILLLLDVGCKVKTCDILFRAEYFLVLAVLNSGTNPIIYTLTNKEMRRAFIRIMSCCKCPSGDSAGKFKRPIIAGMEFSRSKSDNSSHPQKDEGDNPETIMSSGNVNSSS

Structure (SMILES) | EC50 (S1P1 receptor) [nM] | ALT ([1]; 100 mg/kg) [IU/L] | AST ([1]; 100 mg/kg) [IU/L] | TBil ([1]; 100 mg/kg) [mg/dL] | hepatotoxicity [1] | AUC(0-t) (in vivo) [ng·h/mL] | Cmax (in vivo) [ng/mL] | Tmax (in vivo) [min] | half-life (in vivo) [h] | ALT ([1]; 30 mg/kg) [IU/L] | AST ([1]; 30 mg/kg) [IU/L] | TBil ([1]; 30 mg/kg) [mg/dL] | time after administration to recover lymphocytes in blood (lymphocytes in blood) [h]
Cc1cc(-c2noc(-c3nn(C)c4c3CCC(C)(C)C4)n2)cc(C)c1CCN1CCC(C(=O)O)CC1 [Compound 142, 1-(2-{2,6-dimethyl-4-[5-(1,6,6-trimethyl-4,5,6,7-tetrahydro-1H-indazol-3-yl)-1,2,4-oxadiazol-3-yl]phenyl}ethyl)piperidine-4-carboxylic acid] | 8.7 | 45 ± 5 | 87 ± 9 | 0.3 ± 0.1 | lack of hepatotoxicity | 2630 | 824 | 6 | 3.5 |  |  |  | 
CCCCCCCCc1ccc(CCC(N)(CO)CO)cc1 [Fingolimod, reference compound] |  | 355 ± 60 | 589 ± 73 | 0.16 ± 0.02 | high hepatotoxicity | 279 | 50.5 | 6 | 26.1 | 59 ± 62 | 354 ± 70 | 0.12 ± 0.01 | 144
Cn1nc(-c2nc(-c3ccc(CCN4CCC(C(=O)O)CC4)c(C(F)(F)F)c3)no2)c2c1CC(C)(C)CC2 [Compound 171, 1-(2-{2-(trifluoromethyl)-4-[5-(1,6,6-trimethyl-4,5,6,7-tetrahydro-1H-indazol-3-yl)-1,2,4-oxadiazol-3-yl]phenyl}ethyl)piperidine-4-carboxylic acid] | 18.8 | 42 ± 13 | 66 ± 7 | 0.5 ± 0.04 | lack of hepatotoxicity | 6230 | 986 | 6 | 8.2 |  |  |  | 
